Measurements reported in PubChem BioAssay (NCI).
Values joined by “and” are separate entries in the source; they are usually repeats but may differ in a detail not shown here. Identical values can stand only once.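 Compound exposure: 48 hours, 5 concentrations, 96-well plates. The concentration for 50% growth inhibition is given as GI50. The concentration for full growth arrest is given as TGI.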

Tests used:
Assay in all cases: growth of human tumour cells (NCI), 48 h
HOP-92 NSCLC = test system: HOP-92 NSCLC
HOP-62 NSCLC = test system: HOP-62 NSCLC
MDA-MB-435 = test system: MDA-MB-435
HS 578T breast = test system: HS 578T breast
U251 CNS = test system: U251 CNS
EKVX NSCLC = test system: EKVX NSCLC
HCT-116 colon = test system: HCT-116 colon
NCI/ADR-RES ovarian = test system: NCI/ADR-RES ovarian
OVCAR-5 ovarian = test system: OVCAR-5 ovarian
K-562 leukemia = test system: K-562 leukemia

Row | SMILES | GI50 (HOP-92 NSCLC) [µM] | TGI (HOP-92 NSCLC) | GI50 (HOP-62 NSCLC) [µM] | TGI (HOP-62 NSCLC) | GI50 (MDA-MB-435) [µM] | TGI (MDA-MB-435) [µM] | GI50 (HS 578T breast) [µM] | TGI (HS 578T breast) [µM] | GI50 (U251 CNS) [µM] | TGI (U251 CNS) | GI50 (EKVX NSCLC) [µM] | TGI (EKVX NSCLC) | GI50 (HCT-116 colon) [µM] | TGI (HCT-116 colon) | GI50 (NCI/ADR-RES ovarian) [µM] | TGI (NCI/ADR-RES ovarian) [µM] | GI50 (OVCAR-5 ovarian) [µM] | TGI (OVCAR-5 ovarian) | GI50 (K-562 leukemia) [µM] | TGI (K-562 leukemia)
1 | CCN=C1C=CC(=C(c2ccc(N(C)C)cc2)c2ccc(N(C)C)cc2)c2ccccc21 | 0.0414 | 0.352 µM | 0.0825 | 0.578 µM | 0.0705 | 0.408 | 0.149 | 1.02 | 0.0297 | 0.198 µM | 0.0445 | 0.488 µM | 0.0358 | 0.174 µM | 0.636 | 3.94 | 0.215 | 1.19 µM | 0.0557 | 2.17 µM
2 | Cc1cc(N2CCCCC2)nc(N(CCNc2ccnc3cc(Cl)ccc23)Cc2ccco2)n1 | 5.73 | 21.7 µM | 1.73 | 3.73 µM | 1.8 | 3.52 | 2.34 | 5.52 | 1.73 | 3.19 µM | 2.09 | 6.07 µM | 1.41 | 2.84 µM | 1.79 | 3.71 | 2.4 | 6.84 µM | 1.54 | 4.03 µM
3 | CCn1c(-c2nonc2N)nc2cncc(C(=O)N3CCNCC3)c21 | > 25 | > 25 µM | > 25 | > 25 µM | > 25 | > 25 | > 25 | > 25 | > 25 | > 25 µM | > 25 | > 25 µM | > 25 | > 25 µM | > 25 | > 25 | > 25 | > 25 µM | > 25 | > 25 µM
4 | CC12CCC(=O)C(O1)C1C(=O)c3cc4ccccc4cc3C(=O)C12 (stereo unspecified) | 13.9 | 29.7 µM | 45 | > 100 µM | 17.7 | 34 | 28.7 | 73.1 | 19 | 43.7 µM | 23.4 | 72.2 µM | 17.7 | 34.6 µM | 21.3 | 57.2 | 29.3 | 69.6 µM | 16 | 41.5 µM
5 | C[C@]12CC[C@H]3[C@@H](CCC4=CC(=O)CC[C@@H]43)[C@@H]1CC[C@@H]2OC(=O)N(CCCl)N=O | 0.391 | 17.5 µM | 3.17 | 26.1 µM | 3.54 | 32.5 | 5.2 | 34.2 | 0.346 | 17.4 µM | 3.67 | 36.6 µM | 3.92 | 19.2 µM | 2.96 | 31.9 | 20.8 | 49.9 µM | 2.9 | 56 µM
6 | COc1ccc(C(=O)/C=C/c2ccc(Cl)cc2)cc1S(=O)(=O)Nc1c(N)nc(SC)[nH]c1=O | 2.59 | 7.99 µM | 1.81 | 3.97 µM | 2.95 | 10.7 | 3.56 | 24.2 | 1.58 | 3.12 µM | 3.94 | 18.3 µM | 1.56 | 2.94 µM | 40.1 | > 100 | 2.83 | 9.53 µM | 2.77 | > 100 µM
7 | CC1(C)CCC2(C(=O)OC3OC(CO)C(O)C(O)C3O)CC[C@]3(C)C(=CCC4C5(C)CC[C@H](OC6OC(C(=O)O)C(O)C(O)C6O)C(C)(C)C5CCC43C)C2C1 (stereo partly specified) | 1.04 | 2.98 µM | 2.22 | 7.6 µM | 2.52 | > 50 | 1.62 | 4.51 | 1.06 | 2.61 µM | 3.39 | 36.6 µM | 1.12 | 2.38 µM | > 50 | > 50 | 3.07 | 9.41 µM | 1.58 | > 50 µM
8 | CCCN1C(=O)/C(=c2\sc3n(c2=O)C2C(NN=3)N(CC)C(=O)N2CC)c2ccccc21 (stereo unspecified) | 0.885 | 16.3 µM | 0.562 | 16 µM | 0.196 | 0.445 | 0.386 | > 39.8 | 0.485 | 12.3 µM | 0.729 | > 57.2 µM | 0.404 | 12.4 µM | 0.366 | 10.9 | 1.14 | 24.1 µM | 0.374 | > 100 µM
9 | O=C(O)CS(=O)(=O)C(c1ccccc1)c1ccccc1 |  | > 100 µM |  | > 100 µM |  | > 100 |  | > 100 |  | > 100 µM |  | > 100 µM |  | > 100 µM |  | > 100 |  | > 100 µM |  | > 100 µM
10 | CCOC(=O)Cc1c[nH]c(=S)[nH]c1=O | > 100 | > 100 µM | > 100 | > 100 µM | > 100 | > 100 | > 100 | > 100 | > 100 | > 100 µM | > 100 | > 100 µM | > 100 | > 100 µM | > 100 | > 100 | > 100 | > 100 µM | > 100 | > 100 µM
11 | C=C(C)[C@@H]1CC=C(CO)CC1 | > 10 | > 10 µM and 830 µM | > 10 | > 10 µM and 961 µM |  | > 10 |  | > 10 | > 10 | > 10 µM and 806 µM | > 10 | > 10 µM and 1250 µM | > 10 | > 10 µM and 627 µM |  | > 10 | > 10 | > 10 µM and 798 µM | > 10 | > 10 µM and 1140 µM
12 | CCN(CC)c1ccc(/C=C/c2cc(C)c3ccccc3n2)cc1 | 3.63 | 22.9 µM | 4.6 | 34.7 µM | 0.328 | 1.9 | 2.09 | 5.75 | 2.36 | 21.1 µM | 4.95 | 44.9 µM | 4.06 | 16.4 µM | 1.93 | 16.3 | 7.09 | 75.3 µM | 0.64 | 15 µM
13 | C=C1C(=O)O[C@@H]2C1CC(=O)C(C)CC/C=C(\C)CCC[C@H](C)[C@H]2OC(C)=O (stereo partly specified) | 1.64 | 9.12 µM | 18.2 | 33.3 µM | 14.7 | 28 | 15.2 | 36 | 13.9 | 28.4 µM | 16.3 | 31.5 µM | 1.62 | 3.62 µM | 15.3 | 40.9 | 18 | 34.6 µM | 3.52 | 15.3 µM
14 | COc1cc(Cn2cc3c(c2)-c2oncc2CC3)cc(OC)c1OC | 31 | > 100 µM | 0.0479 | > 100 µM | < 0.0107 | < 0.0225 | 0.0306 | > 51.3 | 0.0387 | > 100 µM | 0.0467 | > 65.7 µM | 0.0379 | > 100 µM | 0.0268 |  | 0.0735 | > 100 µM | < 0.0183 | > 34.7 µM
15 | O=C(O)[C@@H]1C2CC([C@@H]1C(=O)O)[C@H](N1C(=O)CCC1=O)[C@@H]2Br (stereo partly specified) |  | > 100 µM |  | > 100 µM |  | > 100 |  | > 100 |  | > 100 µM |  | > 100 µM |  | > 100 µM |  | > 100 |  | > 100 µM |  | > 100 µM
16 | CC(C)(C(=O)NN)c1ccccc1 |  | > 100 µM |  | > 100 µM |  | > 100 |  | > 100 |  | > 100 µM |  | > 100 µM |  | > 100 µM |  | > 100 |  | > 100 µM |  | > 100 µM
